# Measurements published in PubChem BioAssay (NCI).
#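 Tested at 5 concentrations; 48 h exposure; 96-well plates; endpoints linearly interpolated, else capped at highest concentration. At the GI50, growth is halved. At the TGI there is no net growth.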
# Key:
# Assay in all cases: NCI anticancer screen, dose series, 48 h
# [1] = tested on: MDA-MB-231 breast
# [2] = tested on: LOX IMVI melanoma
# [3] = tested on: SF-539 CNS
# [4] = tested on: SF-295 CNS
# [5] = tested on: RPMI-8226 leukemia
# [6] = tested on: SR leukemia
# [7] = tested on: UO-31 renal
# [8] = tested on: SW-620 colon
# [9] = tested on: M14 melanoma
# [10] = tested on: KM12 colon
# [11] = tested on: NCI/ADR-RES ovarian
# [12] = tested on: ACHN renal
# [13] = tested on: HS 578T breast
# [14] = tested on: SK-OV-3 ovarian
# [15] = tested on: UACC-62 melanoma
# [16] = tested on: A498 renal
# [17] = tested on: BT-549 breast
# [18] = tested on: HCT-15 colon
# [19] = tested on: SK-MEL-2 melanoma
# [20] = tested on: HT29 colon
# [21] = tested on: CCRF-CEM leukemia
# [22] = tested on: MALME-3M melanoma
# [23] = tested on: 786-0 renal
# [24] = tested on: OVCAR-8 ovarian
# [25] = tested on: MCF7 breast
# [26] = tested on: SF-268 CNS
# [27] = tested on: NCI-H226 lung
# [28] = tested on: MDA-MB-435
# [29] = tested on: SNB-75 CNS
structure (smiles),measurement,setting,value
CC1=C(C(=O)Nc2ccc3[nH]ncc3c2)C(c2ccc(F)cc2)NC(=O)N1 (stereo not drawn),GI50,[1],> 25 µM
same,TGI,[1],> 25 µM
same,GI50,[2],> 25 µM
same,TGI,[2],> 25 µM
same,GI50,[3],> 25 µM
same,TGI,[3],> 25 µM
same,GI50,[4],> 25 µM
same,TGI,[4],> 25 µM
same,GI50,[5],> 25 µM
same,TGI,[5],> 25 µM
same,GI50,[6],19.2 µM
same,TGI,[6],> 25 µM
same,GI50,[7],> 17.5 µM
same,TGI,[7],> 25 µM
same,GI50,[8],> 25 µM
same,TGI,[8],> 25 µM
same,GI50,[9],> 25 µM
same,TGI,[9],> 25 µM
same,GI50,[10],> 25 µM
same,TGI,[10],> 25 µM
same,GI50,[11],> 25 µM
same,TGI,[11],> 25 µM
same,GI50,[12],> 25 µM
same,TGI,[12],> 25 µM
same,GI50,[13],7.41 µM
same,TGI,[13],> 25 µM
same,GI50,[14],> 25 µM
same,TGI,[14],> 25 µM
same,GI50,[15],> 25 µM
same,TGI,[15],> 25 µM
same,GI50,[16],> 14.6 µM
same,TGI,[16],> 25 µM
same,GI50,[17],16.9 µM
same,TGI,[17],> 25 µM
same,GI50,[18],> 25 µM
same,TGI,[18],> 25 µM
same,GI50,[19],> 25 µM
same,TGI,[19],> 25 µM
same,GI50,[20],> 25 µM
same,TGI,[20],> 25 µM
same,GI50,[21],> 25 µM
same,TGI,[21],> 25 µM
same,GI50,[22],> 25 µM
same,TGI,[22],> 25 µM
same,GI50,[23],> 25 µM
same,TGI,[23],> 25 µM
same,GI50,[24],> 25 µM
same,TGI,[24],> 25 µM
same,GI50,[25],> 25 µM
same,TGI,[25],> 25 µM
same,GI50,[26],23.4 µM
same,TGI,[26],> 25 µM
same,GI50,[27],6.46 µM
same,TGI,[27],> 25 µM
same,GI50,[28],> 25 µM
same,TGI,[28],> 25 µM
same,GI50,[29],6.51 µM
same,TGI,[29],> 25 µM
